Measurements from patent US11612661B2 (priority 2019, dated 2023).
Bridge positions count the residues as written; N and C are the ends. Square brackets hold non-standard residues; d marks the D form. Triazole bridges read from a SMILES are 1,4-linked. Peptide text beside a SMILES is read from it. Orn(N3) = [N-]=[N+]=NCCC[C@H](N)C(=O)O; NMeY = CN[C@@H](Cc1ccc(O)cc1)C(=O)O; Aha = [N-]=[N+]=NCC[C@H](N)C(=O)O; Cit = NC(=O)NCCC[C@H](N)C(=O)O; Hpra = C#CCC[C@H](N)C(=O)O; Pra = C#CC[C@H](N)C(=O)O

Columns and labels:
[1] = target: rat α9α10 nAChR (Rattus norvegicus, UniProt P43144+Q9JLB5); test: cell-based; format: cell-based; settings: for IC50: α9α10 nAChR IC50 (nM) Rat
[2] = target: human α9α10 nAChR (Homo sapiens, UniProt Q9GZZ6+Q9UGM1); test: cell-based; format: cell-based
Sequence of human α9α10 nAChR (Q9UGM1 26-479 limits assumed): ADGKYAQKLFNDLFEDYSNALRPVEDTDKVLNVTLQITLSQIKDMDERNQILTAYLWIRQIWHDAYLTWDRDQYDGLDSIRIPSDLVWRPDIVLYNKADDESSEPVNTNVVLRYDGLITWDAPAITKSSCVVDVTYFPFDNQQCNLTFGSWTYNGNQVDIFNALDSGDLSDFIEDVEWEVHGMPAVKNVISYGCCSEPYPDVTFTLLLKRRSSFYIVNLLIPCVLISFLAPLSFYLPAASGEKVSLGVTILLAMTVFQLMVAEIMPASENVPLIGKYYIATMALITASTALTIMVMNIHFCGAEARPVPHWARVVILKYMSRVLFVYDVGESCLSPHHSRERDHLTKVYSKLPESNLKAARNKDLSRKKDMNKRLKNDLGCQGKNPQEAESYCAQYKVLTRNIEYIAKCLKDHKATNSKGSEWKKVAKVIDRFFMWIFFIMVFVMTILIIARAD
Sequence of human α9α10 nAChR (Q9GZZ6 25-450 limits assumed): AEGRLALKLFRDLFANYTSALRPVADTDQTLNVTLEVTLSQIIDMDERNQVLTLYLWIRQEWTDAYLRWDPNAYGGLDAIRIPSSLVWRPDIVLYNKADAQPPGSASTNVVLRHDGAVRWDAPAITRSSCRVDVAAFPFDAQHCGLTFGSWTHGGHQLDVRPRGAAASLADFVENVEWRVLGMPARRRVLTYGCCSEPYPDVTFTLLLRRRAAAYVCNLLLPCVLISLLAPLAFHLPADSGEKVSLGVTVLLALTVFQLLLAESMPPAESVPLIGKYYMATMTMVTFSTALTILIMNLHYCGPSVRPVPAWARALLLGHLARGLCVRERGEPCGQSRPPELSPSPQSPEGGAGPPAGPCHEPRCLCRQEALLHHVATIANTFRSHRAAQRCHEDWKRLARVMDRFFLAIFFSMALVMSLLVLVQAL

Sequence of rat α9α10 nAChR (P43144 26-479 limits assumed): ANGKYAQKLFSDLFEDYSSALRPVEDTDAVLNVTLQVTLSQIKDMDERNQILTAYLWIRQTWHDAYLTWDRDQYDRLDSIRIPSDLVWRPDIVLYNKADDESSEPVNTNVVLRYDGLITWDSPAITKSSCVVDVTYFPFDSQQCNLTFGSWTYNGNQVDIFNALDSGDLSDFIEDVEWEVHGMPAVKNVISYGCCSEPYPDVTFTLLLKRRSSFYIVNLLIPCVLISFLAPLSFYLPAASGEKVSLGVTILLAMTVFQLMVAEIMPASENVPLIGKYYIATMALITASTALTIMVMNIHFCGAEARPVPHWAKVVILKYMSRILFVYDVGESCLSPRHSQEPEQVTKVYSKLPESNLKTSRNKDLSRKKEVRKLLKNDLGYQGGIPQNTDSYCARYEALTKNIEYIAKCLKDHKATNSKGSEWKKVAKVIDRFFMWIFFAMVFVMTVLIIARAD
Sequence of rat α9α10 nAChR (Q9JLB5 25-447 limits assumed): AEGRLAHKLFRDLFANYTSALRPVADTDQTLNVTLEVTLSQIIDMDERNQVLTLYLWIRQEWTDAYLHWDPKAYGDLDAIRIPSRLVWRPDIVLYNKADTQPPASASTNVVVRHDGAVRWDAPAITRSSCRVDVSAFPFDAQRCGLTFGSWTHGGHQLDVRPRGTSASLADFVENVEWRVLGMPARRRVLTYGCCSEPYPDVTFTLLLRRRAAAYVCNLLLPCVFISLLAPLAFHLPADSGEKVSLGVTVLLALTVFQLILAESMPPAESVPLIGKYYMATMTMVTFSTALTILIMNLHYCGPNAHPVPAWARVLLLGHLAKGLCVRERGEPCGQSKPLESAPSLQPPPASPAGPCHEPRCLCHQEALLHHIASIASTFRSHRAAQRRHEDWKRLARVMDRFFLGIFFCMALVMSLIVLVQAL

Compound | Loss in activity on the rat channel on deletion of amino acid 13 (1a vs 1q) [1] | IC50 [1] [nM] | IC50 [2] [nM] | Loss of activity on the human channel on deletion of amino acid 13 (1a vs 1q) [2]
C[C@@H](O)[C@@H]1NC(=O)[C@@H]2Cc3cn(nn3)CCC[C@@H](C(=O)O)NC(=O)[C@H](CCC(N)=O)NC(=O)[C@H](Cc3c[nH]c4ccccc34)NC(=O)[C@H](CCCNC(N)=O)NC(=O)[C@H](CSSC[C@H](NC(=O)CN)C(=O)N2)NC(=O)[C@H](CCCNC(=N)N)NC(=O)[C@@H]2CCCN2C(=O)[C@H](CC(=O)O)NC1=O [Iq, L-norvaline, glycyl-L-cysteinyl-L-alanyl-L-threonyl-L-α-aspartyl-L-prolyl-L-arginyl-L-cysteinyl-N5-(aminocarbonyl)-L-ornithyl-L-tryptophyl-L-glutaminyl-cyclic (2→8)-disulfide-cyclic 3^3,12^5-(1H-1,2,3-triazole-4,1-diyl)] (H-GC[Pra]TDPRC[Cit]WQ[Orn(N3)]-OH; disulfide 2-8; triazole 3-12) | approximately 10 fold | 69 ± 2 | > 300 | greater than 100 fold
C[C@@H](O)[C@@H]1NC(=O)[C@@H]2Cc3cn(nn3)CCC[C@@H](C(=O)N[C@@H](Cc3ccc(O)cc3)C(=O)N(C)[C@@H](Cc3ccc(O)cc3)C(=O)O)NC(=O)[C@H](CCC(N)=O)NC(=O)[C@H](Cc3c[nH]c4ccccc34)NC(=O)[C@H](CCCNC(N)=O)NC(=O)[C@H](CSSC[C@H](NC(=O)CN)C(=O)N2)NC(=O)[C@H](CCCNC(=N)N)NC(=O)[C@@H]2CCCN2C(=O)[C@H](CC(=O)O)NC1=O [Ip, L-tyrosine, glycyl-L-cysteinyl-L-alanyl-L-threonyl-L-α-aspartyl-L-prolyl-L-arginyl-L-cysteinyl-N5-(aminocarbonyl)-L-ornithyl-L-tryptophyl-L-glutaminyl-L-norvalyl-L-tyrosyl-N-methyl-cyclic (2→8)-disulfide-cyclic 3^3,12^5-(1H-1,2,3-triazole-4,1-diyl)] (H-GC[Pra]TDPRC[Cit]WQ[Orn(N3)]Y[NMeY]-OH; disulfide 2-8; triazole 3-12) | – | ≤ 10 | 26 ± 1.4 | –
C[C@@H](O)[C@@H]1NC(=O)[C@@H]2CCc3cn(nn3)CCC[C@@H](C(=O)N[C@@H](Cc3ccc(O)cc3)C(=O)O)NC(=O)[C@H](CCC(N)=O)NC(=O)[C@H](Cc3c[nH]c4ccccc34)NC(=O)[C@H](CCCNC(N)=O)NC(=O)[C@H](CSSC[C@H](NC(=O)CN)C(=O)N2)NC(=O)[C@H](CCCNC(=N)N)NC(=O)[C@@H]2CCCN2C(=O)[C@H](CC(=O)O)NC1=O [Ig, L-tyrosine, glycyl-L-cysteinyl-(2S)-2-aminobutanoyl-L-threonyl-L-α-aspartyl-L-prolyl-L-arginyl-L-cysteinyl-N5-(aminocarbonyl)-L-ornithyl-L-tryptophyl-L-glutaminyl-L-norvalyl-cyclic (2→8)-disulfide-cyclic 3^4,12^5-(1H-1,2,3-triazole-4,1-diyl)] (H-GC[Hpra]TDPRC[Cit]WQ[Orn(N3)]Y-OH; disulfide 2-8; triazole 3-12) | – | 22 ± 1.1 | 19 | –
C[C@@H](O)[C@@H]1NC(=O)[C@@H]2Cc3cn(nn3)CCC[C@@H](C(=O)N(C)[C@@H](Cc3ccc(O)cc3)C(=O)O)NC(=O)[C@H](CCC(N)=O)NC(=O)[C@H](Cc3c[nH]c4ccccc34)NC(=O)[C@H](CCCNC(N)=O)NC(=O)[C@H](CSSC[C@H](NC(=O)CN)C(=O)N2)NC(=O)[C@H](CCCNC(=N)N)NC(=O)[C@@H]2CCCN2C(=O)[C@H](CC(=O)O)NC1=O [Ir, L-tyrosine, glycyl-L-cysteinyl-L-alanyl-L-threonyl-L-α-aspartyl-L-prolyl-L-arginyl-L-cysteinyl-N5-(aminocarbonyl)-L-ornithyl-L-tryptophyl-L-glutaminyl-L-norvalyl-N-methyl-cyclic (2→8)-disulfide-cyclic 3^3,12^5-(1H-1,2,3-triazole-4,1-diyl)] (H-GC[Pra]TDPRC[Cit]WQ[Orn(N3)][NMeY]-OH; disulfide 2-8; triazole 3-12) | – | 31 ± 0.7 | ~100 | –
C[C@@H](O)[C@@H]1NC(=O)[C@@H]2CCc3cn(nn3)CC[C@@H](C(=O)N[C@@H](Cc3ccc(O)cc3)C(=O)O)NC(=O)[C@H](CCC(N)=O)NC(=O)[C@H](Cc3c[nH]c4ccccc34)NC(=O)[C@H](CCCNC(N)=O)NC(=O)[C@H](CSSC[C@H](NC(=O)CN)C(=O)N2)NC(=O)[C@H](CCCNC(=N)N)NC(=O)[C@@H]2CCCN2C(=O)[C@H](CC(=O)O)NC1=O [Ih, L-tyrosine, glycyl-L-cysteinyl-(2S)-2-aminobutanoyl-L-threonyl-L-α-aspartyl-L-prolyl-L-arginyl-L-cysteinyl-N5-(aminocarbonyl)-L-ornithyl-L-tryptophyl-L-glutaminyl-L-(2S)-2-aminobutanoyl-cyclic (2→8)-disulfide-cyclic 3^4,12^4-(1H-1,2,3-triazole-4,1-diyl)] (H-GC[Hpra]TDPRC[Cit]WQ[Aha]Y-OH; disulfide 2-8; triazole 3-12) | – | 8.5 ± 1.1 | 8 ± 1.5 | –
C[C@@H](O)[C@@H]1NC(=O)[C@@H]2Cc3cn(nn3)CCC[C@@H](C(=O)N[C@H](Cc3ccc(O)cc3)C(=O)O)NC(=O)[C@H](CCC(N)=O)NC(=O)[C@H](Cc3c[nH]c4ccccc34)NC(=O)[C@H](CCCNC(N)=O)NC(=O)[C@H](CSSC[C@H](NC(=O)CN)C(=O)N2)NC(=O)[C@H](CCCNC(=N)N)NC(=O)[C@@H]2CCCN2C(=O)[C@H](CC(=O)O)NC1=O [Im, D-tyrosine, glycyl-L-cysteinyl-L-alanyl-L-threonyl-L-α-aspartyl-L-prolyl-L-arginyl-L-cysteinyl-N5-(aminocarbonyl)-L-ornithyl-L-tryptophyl-L-glutaminyl-L-norvalyl-cyclic (2→8)-disulfide-cyclic 3^3,12^5-(1H-1,2,3-triazole-4,1-diyl)] (H-GC[Pra]TDPRC[Cit]WQ[Orn(N3)][dY]-OH; disulfide 2-8; triazole 3-12) | – | – | 50 ± 1.2 | –
C[C@@H](O)[C@@H]1NC(=O)[C@@H]2Cc3cn(nn3)CCC[C@@H](C(=O)N[C@H](CCCNC(=N)N)C(=O)O)NC(=O)[C@H](CCC(N)=O)NC(=O)[C@H](Cc3c[nH]c4ccccc34)NC(=O)[C@H](CCCNC(N)=O)NC(=O)[C@H](CSSC[C@H](NC(=O)CN)C(=O)N2)NC(=O)[C@H](CCCNC(=N)N)NC(=O)[C@@H]2CCCN2C(=O)[C@H](CC(=O)O)NC1=O [Is, D-arginine, glycyl-L-cysteinyl-L-alanyl-L-threonyl-L-α-aspartyl-L-prolyl-L-arginyl-L-cysteinyl-N5-(aminocarbonyl)-L-ornithyl-L-tryptophyl-L-glutaminyl-L-norvalyl-cyclic (2→8)-disulfide-cyclic 3^3,12^5-(1H-1,2,3-triazole-4,1-diyl)] (H-GC[Pra]TDPRC[Cit]WQ[Orn(N3)][dR]-OH; disulfide 2-8; triazole 3-12) | – | – | 59 | –
C[C@@H](O)[C@@H]1NC(=O)[C@@H]2Cc3cn(nn3)CCC[C@@H](C(=O)N[C@@H](Cc3ccccc3)C(=O)O)NC(=O)[C@H](CCC(N)=O)NC(=O)[C@H](Cc3c[nH]c4ccccc34)NC(=O)[C@H](CCCNC(N)=O)NC(=O)[C@H](CSSC[C@H](NC(=O)CN)C(=O)N2)NC(=O)[C@H](CCCNC(=N)N)NC(=O)[C@@H]2CCCN2C(=O)[C@H](CC(=O)O)NC1=O [Il, L-phenylalanine, glycyl-L-cysteinyl-L-alanyl-L-threonyl-L-α-aspartyl-L-prolyl-L-arginyl-L-cysteinyl-N5-(aminocarbonyl)-L-ornithyl-L-tryptophyl-L-glutaminyl-L-norvalyl-cyclic (2→8)-disulfide-cyclic 3^3,12^5-(1H-1,2,3-triazole-4,1-diyl)] (H-GC[Pra]TDPRC[Cit]WQ[Orn(N3)]F-OH; disulfide 2-8; triazole 3-12) | – | – | 11 ± 1.4 | –
